In ChEMBL document CHEMBL5625231, “Targeting autophagy with small-molecule activators for potential therapeutic purposes” (Eur J Med Chem, 2023):
One block for each compound: values may come before it.

Legend:
[1] = molecular target: T1, Serine/threonine-protein kinase ULK1 (Homo sapiens) (UniProt O75385); test: Agonist activity at ULK1 (unknown origin) at 100 nM incubated for 60 mins in presence of ATP by ADP-glo assay relative to control; conditions: filed as agonist
T1 sequence (whole entry): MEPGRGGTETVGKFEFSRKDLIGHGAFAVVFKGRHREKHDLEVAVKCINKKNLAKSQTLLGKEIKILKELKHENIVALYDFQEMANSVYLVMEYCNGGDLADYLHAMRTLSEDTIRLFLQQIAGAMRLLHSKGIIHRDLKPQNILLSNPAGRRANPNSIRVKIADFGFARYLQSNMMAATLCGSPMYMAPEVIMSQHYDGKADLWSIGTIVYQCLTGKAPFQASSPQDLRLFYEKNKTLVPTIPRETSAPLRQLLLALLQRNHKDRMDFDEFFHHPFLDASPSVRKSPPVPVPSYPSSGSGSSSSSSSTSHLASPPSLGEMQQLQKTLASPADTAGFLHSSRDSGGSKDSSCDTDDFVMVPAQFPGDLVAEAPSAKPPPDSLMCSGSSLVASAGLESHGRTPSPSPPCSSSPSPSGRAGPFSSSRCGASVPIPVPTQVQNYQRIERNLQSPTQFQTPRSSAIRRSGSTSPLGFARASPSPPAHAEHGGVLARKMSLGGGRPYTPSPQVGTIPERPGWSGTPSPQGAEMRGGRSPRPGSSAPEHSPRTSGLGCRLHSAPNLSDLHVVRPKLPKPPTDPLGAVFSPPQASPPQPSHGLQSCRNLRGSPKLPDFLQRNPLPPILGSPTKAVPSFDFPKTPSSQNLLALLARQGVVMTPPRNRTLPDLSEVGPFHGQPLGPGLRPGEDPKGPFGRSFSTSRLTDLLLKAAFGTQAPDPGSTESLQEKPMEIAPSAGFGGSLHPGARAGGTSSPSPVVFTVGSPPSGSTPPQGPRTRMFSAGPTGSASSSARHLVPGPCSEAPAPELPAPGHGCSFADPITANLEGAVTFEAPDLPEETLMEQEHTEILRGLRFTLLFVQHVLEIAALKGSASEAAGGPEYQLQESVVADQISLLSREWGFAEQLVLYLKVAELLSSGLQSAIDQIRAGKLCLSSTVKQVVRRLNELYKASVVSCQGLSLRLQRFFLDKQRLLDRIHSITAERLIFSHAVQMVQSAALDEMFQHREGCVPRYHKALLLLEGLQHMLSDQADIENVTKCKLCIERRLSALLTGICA

[2] = Activation of AMPK in rat hepatocyte using SAMS as substrate incubated for 30 mins in presence of [gamma-33P]ATP; type: cell-based
MDA-MB-231 = test: Antiproliferative activity against human MDA-MB-231 cells assessed reduction in cell viability incubated for 24 hrs by MTT assay; type: functional, cell-based; conditions: MDA-MB-231, 24 h
Transcription factor EB = molecular target: T2, Transcription factor EB (Homo sapiens, UniProt P19484); test: Binding affinity to full length N-terminal his6-tagged human TFEB expressed in Escherichia coli by isothermal titration calorimetry analysis
T2 sequence (P19484 whole entry): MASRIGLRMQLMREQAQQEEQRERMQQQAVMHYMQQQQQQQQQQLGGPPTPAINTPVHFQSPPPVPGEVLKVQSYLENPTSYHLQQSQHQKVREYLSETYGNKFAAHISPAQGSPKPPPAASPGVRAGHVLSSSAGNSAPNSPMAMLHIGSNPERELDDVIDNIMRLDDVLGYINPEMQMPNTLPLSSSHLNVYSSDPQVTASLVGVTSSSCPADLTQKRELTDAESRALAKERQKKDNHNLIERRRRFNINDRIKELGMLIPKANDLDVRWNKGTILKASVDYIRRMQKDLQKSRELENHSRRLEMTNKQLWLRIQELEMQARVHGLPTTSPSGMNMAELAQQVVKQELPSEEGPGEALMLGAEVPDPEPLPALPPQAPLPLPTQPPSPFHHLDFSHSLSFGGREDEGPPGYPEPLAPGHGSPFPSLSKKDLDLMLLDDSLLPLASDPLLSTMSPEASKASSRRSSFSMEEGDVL

Forkhead box protein O1 = Forkhead box protein O1 (Homo sapiens, UniProt Q12778); test: Activation of FoxO1(unknown origin)
Chain of Forkhead box protein O1 (Q12778 whole entry): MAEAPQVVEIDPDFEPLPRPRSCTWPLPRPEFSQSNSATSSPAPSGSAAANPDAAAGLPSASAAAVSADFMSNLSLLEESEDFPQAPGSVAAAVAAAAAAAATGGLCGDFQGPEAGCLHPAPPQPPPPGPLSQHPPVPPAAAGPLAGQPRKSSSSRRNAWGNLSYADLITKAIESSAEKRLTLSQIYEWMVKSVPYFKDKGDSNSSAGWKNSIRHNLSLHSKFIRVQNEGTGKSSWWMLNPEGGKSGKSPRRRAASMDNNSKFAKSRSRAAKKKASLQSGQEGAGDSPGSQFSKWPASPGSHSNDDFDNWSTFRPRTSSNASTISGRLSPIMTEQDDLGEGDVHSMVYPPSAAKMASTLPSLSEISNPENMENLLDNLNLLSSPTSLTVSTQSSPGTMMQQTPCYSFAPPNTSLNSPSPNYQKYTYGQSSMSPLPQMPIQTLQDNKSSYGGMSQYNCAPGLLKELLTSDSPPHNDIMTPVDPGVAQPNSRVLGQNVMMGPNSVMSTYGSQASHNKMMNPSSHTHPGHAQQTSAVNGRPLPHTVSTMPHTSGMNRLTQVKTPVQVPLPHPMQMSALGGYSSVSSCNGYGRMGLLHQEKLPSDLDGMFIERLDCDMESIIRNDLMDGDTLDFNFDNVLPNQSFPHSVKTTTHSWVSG

SMILES: CC(C)CN(CC(=O)N1CCN(CC(OCc2ccc3ccccc3c2)c2ccc(Cl)cc2Cl)CC1)CC(C)C (stereo not drawn)
Activity [1]: 196%

SMILES: N#Cc1c(O)c2c(-c3ccc(-c4ccccc4O)cc3)csc2[nH]c1=O
EC50 [2]: 800 nM

SMILES: N#Cc1c(O)c2c(-c3ccccc3)csc2[nH]c1=O
EC50 [2]: 38000 nM

SMILES: CC(C)(C)OC(=O)N1CCN(CC(OCc2ccc3ccccc3c2)c2ccc(Cl)cc2Cl)CC1 (stereo not drawn)
IC50 (MDA-MB-231): 20900 nM
Activity [1]: 154%

More lines, now with the values ahead:

IC50 (MDA-MB-231): 750 nM
SMILES: COC(=O)Nc1nc2cc(C(=O)c3ccc(F)cc3)ccc2[nH]1 [FLUBENDAZOLE]

EC50 (Transcription factor EB): 2170 nM
SMILES: COc1ccccc1/C=C/C(=O)/C=C/c1ccccc1OC

EC50 (Forkhead box protein O1): 420 nM
SMILES: Cc1[nH]c2ccccc2c1CCNCc1ccc(/C=C/C(=O)NO)cc1 [PANOBINOSTAT]
